Tests used:
in vitro [1] = settings: human, Caco-2
in vitro [2] = settings: rat, liver microsomes

half-life at 0.1 µM (in vitro [2]) [h]	Compound	Papp A→B at 10 µM (in vitro [1]) [×10⁻⁶ cm/s]
	CNC(=C[N+](=O)[O-])NCCSCc1ccc(CN(C)C)o1 [RANITIDINE]	0.3
> 1	CC(C)NCC(O)COc1cccc2ccccc12 (configuration not stated) [PROPRANOLOL]	
